In US10377719B2, “Trypanosomes inhibitors” (Hoffmann-La Roche Inc., priority 2015, dated 2019):

Test system: Trypanosoma brucei rhodesiense STIB900
Test: Activity against Trypanosoma brucei rhodesiense STIB900 (Alamar Blue assay)
Format: cell-based
Settings: Trypanosoma brucei, 70 h, bloodstream forms of T. b. rhodesiense STIB 900, 70 h incubation
Method: Activity Against Trypanosoma brucei Rhodesiense STIB900
This stock was isolated in 1982 from a human patient in Tanzania and after several mouse passages cloned and adapted to axenic culture conditions (Baltz, T., D. Baltz, C. Giroud, and J. Crockett. 1985, Cultivation in a semi-defined medium of animal infective forms of Trypanosoma brucei, T. equiperdum, T. evansi, T. rhodesiense and T. gambiense. EMBO Journal 4:1273-1277). Minimum Essential Medium (50 μl) supplemented with 25 mM HEPES, 1 g/l additional glucose, 1% MEM non-essential amino acids (100×), 0.2 mM 2-mercaptoethanol, 1 mM Na-pyruvate and 15% heat inactivated horse serum was added to each well of a 96-well microtiter plate. Serial drug dilutions of eleven 3-fold dilution steps covering a range from […] were prepared. Then 4×10^3 bloodstream forms of T. b. rhodesiense STIB 900 in 50 μl was added to each well and the plate incubated at 37° C. under a 5% CO2 atmosphere for 70 h. 10 μl Alamar Blue (resazurin, 12.5 mg in 100 ml double-distilled water) was then added to each well and incubation continued for a further 2-4 h (Räz, B., M. Iten, Y. Grether-Buhler, R. Kaminsky, and R. Brun. 1997, The Alamar Blue assay to determine drug sensitivity of African trypanosomes (T.b. rhodesiense and T.b. gambiense) in vitro. Acta Trop 68:139-47). Then the plates were read with a Spectramax Gemini XS microplate fluorometer (Molecular Devices Cooperation, Sunnyvale, Calif., USA) using an excitation wave length of 536 nm and an emission wave length of 588 nm. The IC50 values were calculated by linear regression (Huber, W. Koella, J. C. 1993, A comparison of the three methods of estimating EC50 in studies of drug resistance of malaria parasites. Acta Trop. 55, 257-261) from the sigmoidal dose inhibition curves using SoftmaxPro software (Molecular Devices Cooperation, Sunnyvale, Calif., USA). Melarsoprol is used as control.

Compound: CC(C)(C)n1ncc(C(=O)N[C@@H](Cc2ccc(OC(F)(F)F)c(Cl)c2)C(=O)NC2(C#N)CC2)n1 [Example 37, 2-tert-butyl-N-[(2S)-3-[3-chloro-4-(trifluoromethoxy)phenyl]-1-[(1-cyanocyclopropyl)amino]-1-oxopropan-2-yl]triazole-4-carboxamide]
- IC50: 0.004 µM
